Experimental data from patent US20230085307A1, “PYRIDAZINONE COMPOUND AND HERBICIDE” (NISSAN CHEMICAL CORPORATION, priority 2019, published 2023).

Assays:
false cleavers = test: Test Example 4: herbicidal effect by soil treatment (Table 19, symbol Q); type: in vivo, false cleavers (Galium spurium); settings: amount of applied herbicide 320 g/ha
Procedure, shortened: (§1)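 Herbicidal effect was rated 3 weeks after treatment, using the scoring criteria of an earlier test. The compound, formulated as an emulsion and diluted in water to a set herbicide amount, had been sprayed uniformly on soil over freshly sown seeds. Growth took place in a greenhouse at 25° C. to 30° C.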

Italian ryegrass [1] = test: Test Example 5: herbicidal effect by foliage application, plastic box (Table 20, symbol K); type: in vivo, Italian ryegrass (Lolium multiflorum); settings: foliage application, 320 g/ha, evaluated three weeks after application
Procedure, shortened: (§2)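 Foliar spray test: emulsion formulation diluted in water to a set application rate, sprayed onto 14-day-old plants raised in diluvial soil at 25° C to 30° C under glass. Both herbicidal effect and crop effect rated visually three weeks later.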

lambsquarters [2] = test: Test Example 4: herbicidal effect by soil treatment (Table 19, symbol O); type: in vivo, lambsquarters (Chenopodium album); settings: amount of applied herbicide 320 g/ha
Procedure, shortened: as §1

Chinese sprangletop = test: Test Example 3: herbicidal effect by foliage application, Wagner pot (Table 18, symbol D); type: in vivo, chinese sprangletop (Leptochloa chinensis); settings: amount of applied herbicide 320 g/ha
Procedure, shortened: (§3)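 Plants were sown in alluvial soil held under 0.1–0.5 cm standing water and grown 14 days in a greenhouse at 25–30 °C. An emulsifiable formulation, water-diluted to the set dose, was then sprayed onto the foliage, and effects were scored three weeks later using previously defined criteria.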

wild oat [3] = test: Test Example 5: herbicidal effect by foliage application, plastic box (Table 20, symbol I); type: in vivo, wild oat (Avena fatua); settings: foliage application, 320 g/ha, evaluated three weeks after application
Procedure, shortened: as §2

velvetleaf [4] = test: Test Example 4: herbicidal effect by soil treatment (Table 19, symbol M); type: in vivo, velvetleaf (Abutilon theophrasti); settings: amount of applied herbicide 320 g/ha
Procedure, shortened: as §1

green foxtail [5] = test: Test Example 4: herbicidal effect by soil treatment (Table 19, symbol G); type: in vivo, green foxtail (Setaria viridis); settings: amount of applied herbicide 320 g/ha
Procedure, shortened: as §1

windgrass [6] = test: Test Example 5: herbicidal effect by foliage application, plastic box (Table 20, symbol L); type: in vivo, windgrass (Apera spica-venti); settings: foliage application, 320 g/ha, evaluated three weeks after application
Procedure, shortened: as §2

velvetleaf [7] = test: Test Example 5: herbicidal effect by foliage application, plastic box (Table 20, symbol M); type: in vivo, velvetleaf (Abutilon theophrasti); settings: foliage application, 320 g/ha, evaluated three weeks after application
Procedure, shortened: as §2

chickweed [8] = test: Test Example 4: herbicidal effect by soil treatment (Table 19, symbol P); type: in vivo, common chickweed (Stellaria media); settings: amount of applied herbicide 320 g/ha
Procedure, shortened: as §1

barnyard grass [9] = test: Test Example 4: herbicidal effect by soil treatment (Table 19, symbol H); type: in vivo, barnyard grass (Echinochloa crus-galli); settings: amount of applied herbicide 320 g/ha
Procedure, shortened: as §1

Italian ryegrass [10] = test: Test Example 4: herbicidal effect by soil treatment (Table 19, symbol K); type: in vivo, Italian ryegrass (Lolium multiflorum); settings: amount of applied herbicide 320 g/ha
Procedure, shortened: as §1

barnyard grass [11] = test: Test Example 3: herbicidal effect by foliage application, Wagner pot (Table 18, symbol H); type: in vivo, barnyard grass (Echinochloa crus-galli); settings: amount of applied herbicide 320 g/ha
Procedure, shortened: as §3

lambsquarters [12] = test: Test Example 5: herbicidal effect by foliage application, plastic box (Table 20, symbol O); type: in vivo, lambsquarters (Chenopodium album); settings: foliage application, 320 g/ha, evaluated three weeks after application
Procedure, shortened: as §2

southern crabgrass [13] = test: Test Example 5: herbicidal effect by foliage application, plastic box (Table 20, symbol F); type: in vivo, southern crabgrass (Digitaria ciliaris); settings: foliage application, 320 g/ha, evaluated three weeks after application
Procedure, shortened: as §2

windgrass [14] = test: Test Example 4: herbicidal effect by soil treatment (Table 19, symbol L); type: in vivo, windgrass (Apera spica-venti); settings: amount of applied herbicide 320 g/ha
Procedure, shortened: as §1

blackgrass [15] = test: Test Example 4: herbicidal effect by soil treatment (Table 19, symbol J); type: in vivo, blackgrass (Alopecurus myosuroides); settings: amount of applied herbicide 320 g/ha
Procedure, shortened: as §1

green foxtail [16] = test: Test Example 5: herbicidal effect by foliage application, plastic box (Table 20, symbol G); type: in vivo, green foxtail (Setaria viridis); settings: foliage application, 320 g/ha, evaluated three weeks after application
Procedure, shortened: as §2

wild oat [17] = test: Test Example 4: herbicidal effect by soil treatment (Table 19, symbol I); type: in vivo, wild oat (Avena fatua); settings: amount of applied herbicide 320 g/ha
Procedure, shortened: as §1

rice flat sedge = test: Test Example 3: herbicidal effect by foliage application, Wagner pot (Table 18, symbol E); type: in vivo, rice flat sedge (Cyperus iria); settings: amount of applied herbicide 320 g/ha
Procedure, shortened: as §3

persian speedwell [18] = test: Test Example 4: herbicidal effect by soil treatment (Table 19, symbol R); type: in vivo, Persian speedwell (Veronica persica); settings: amount of applied herbicide 320 g/ha
Procedure, shortened: as §1

blackgrass [19] = test: Test Example 5: herbicidal effect by foliage application, plastic box (Table 20, symbol J); type: in vivo, blackgrass (Alopecurus myosuroides); settings: foliage application, 320 g/ha, evaluated three weeks after application
Procedure, shortened: as §2

barnyard grass [20] = test: Test Example 5: herbicidal effect by foliage application, plastic box (Table 20, symbol H); type: in vivo, barnyard grass (Echinochloa crus-galli); settings: foliage application, 320 g/ha, evaluated three weeks after application
Procedure, shortened: as §2

persian speedwell [21] = test: Test Example 5: herbicidal effect by foliage application, plastic box (Table 20, symbol R); type: in vivo, Persian speedwell (Veronica persica); settings: foliage application, 320 g/ha, evaluated three weeks after application
Procedure, shortened: as §2

redroot pigweed [22] = test: Test Example 5: herbicidal effect by foliage application, plastic box (Table 20, symbol N); type: in vivo, redroot pigweed (Amaranthus retroflexus); settings: foliage application, 320 g/ha, evaluated three weeks after application
Procedure, shortened: as §2

chickweed [23] = test: Test Example 5: herbicidal effect by foliage application, plastic box (Table 20, symbol P); type: in vivo, common chickweed (Stellaria media); settings: foliage application, 320 g/ha, evaluated three weeks after application
Procedure, shortened: as §2

redroot pigweed [24] = test: Test Example 4: herbicidal effect by soil treatment (Table 19, symbol N); type: in vivo, redroot pigweed (Amaranthus retroflexus); settings: amount of applied herbicide 320 g/ha
Procedure, shortened: as §1

southern crabgrass [25] = test: Test Example 4: herbicidal effect by soil treatment (Table 19, symbol F); type: in vivo, southern crabgrass (Digitaria ciliaris); settings: amount of applied herbicide 320 g/ha
Procedure, shortened: as §1

| SMILES | Q: false cleavers, herbicidal effect rating (false cleavers) | O: lambsquarters, herbicidal effect rating (lambsquarters [2]) | herbicidal effect on D: Chinese sprangletop (Chinese sprangletop) | M: velvetleaf, herbicidal effect rating (velvetleaf [4]) | G: green foxtail, herbicidal effect rating (green foxtail [5]) | P: chickweed, herbicidal effect rating (chickweed [8]) | H: barnyard grass, herbicidal effect rating (barnyard grass [9]) | K: Italian ryegrass, herbicidal effect rating (Italian ryegrass [10]) | herbicidal effect on H: barnyard grass (barnyard grass [11]) | L: windgrass, herbicidal effect rating (windgrass [14]) | J: blackgrass, herbicidal effect rating (blackgrass [15]) | I: wild oat, herbicidal effect rating (wild oat [17]) | herbicidal effect on E: rice flat sedge (rice flat sedge) | R: persian speedwell, herbicidal effect rating (persian speedwell [18]) | N: redroot pigweed, herbicidal effect rating (redroot pigweed [24]) | F: southern crabgrass, herbicidal effect rating (southern crabgrass [25]) | other results |
| --- | --- | --- | --- | --- | --- | --- | --- | --- | --- | --- | --- | --- | --- | --- | --- | --- | --- |
| Cc1ccc2sc(-c3ccccc3)c(-c3c(O)c(C)nn(C)c3=O)c2c1 [2-132] | 0 (Herbicidal rate of 5% or less (almost no effect)) | 5 (Herbicidal rate of 90% or more (almost completely withered)) | 0 (Herbicidal rate of 5% or less (almost no effect)) | 0 (Herbicidal rate of 5% or less (almost no effect)) | 3 (Herbicidal rate of 40% or more and less than 70%) | 4 (Herbicidal rate of 70% or more and less than 90%) | 3 (Herbicidal rate of 40% or more and less than 70%) | 2 (Herbicidal rate of 20% or more and less than 40%) | 0 (Herbicidal rate of 5% or less (almost no effect)) | 0 (Herbicidal rate of 5% or less (almost no effect)) | 0 (Herbicidal rate of 5% or less (almost no effect)) | 0 (Herbicidal rate of 5% or less (almost no effect)) | 5 (Herbicidal rate of 90% or more (almost completely withered)) | 3 (Herbicidal rate of 40% or more and less than 70%) | 0 (Herbicidal rate of 5% or less (almost no effect)) | 1 (Herbicidal rate of 5% or more and less than 20%) | herbicidal effect on K: Italian ryegrass (Italian ryegrass [1]): 5 (Herbicidal rate of 90% or more (almost completely withered)); herbicidal effect on I: wild oat (wild oat [3]): 0 (Herbicidal rate of 5% or less (almost no effect)); herbicidal effect on L: windgrass (windgrass [6]): 0 (Herbicidal rate of 5% or less (almost no effect)); herbicidal effect on M: velvetleaf (velvetleaf [7]): 3 (Herbicidal rate of 40% or more and less than 70%); herbicidal effect on O: lambsquarters (lambsquarters [12]): 4 (Herbicidal rate of 70% or more and less than 90%); herbicidal effect on F: southern crabgrass (southern crabgrass [13]): 1 (Herbicidal rate of 5% or more and less than 20%); herbicidal effect on G: green foxtail (green foxtail [16]): 3 (Herbicidal rate of 40% or more and less than 70%); herbicidal effect on J: blackgrass (blackgrass [19]): 2 (Herbicidal rate of 20% or more and less than 40%); herbicidal effect on H: barnyard grass (barnyard grass [20]): 0 (Herbicidal rate of 5% or less (almost no effect)); herbicidal effect on R: persian speedwell (persian speedwell [21]): 5 (Herbicidal rate of 90% or more (almost completely withered)); herbicidal effect on N: redroot pigweed (redroot pigweed [22]): 5 (Herbicidal rate of 90% or more (almost completely withered)); herbicidal effect on P: chickweed (chickweed [23]): 5 (Herbicidal rate of 90% or more (almost completely withered)) |
| Cc1ccc2sc(-c3ccc([N+](=O)[O-])cc3)c(-c3c(O)c(C)nn(C)c3=O)c2c1 [2-144] | 0 (Herbicidal rate of 5% or less (almost no effect)) | 3 (Herbicidal rate of 40% or more and less than 70%) | 0 (Herbicidal rate of 5% or less (almost no effect)) | 0 (Herbicidal rate of 5% or less (almost no effect)) | 0 (Herbicidal rate of 5% or less (almost no effect)) | 1 (Herbicidal rate of 5% or more and less than 20%) | 0 (Herbicidal rate of 5% or less (almost no effect)) | 0 (Herbicidal rate of 5% or less (almost no effect)) | 2 (Herbicidal rate of 20% or more and less than 40%) | 0 (Herbicidal rate of 5% or less (almost no effect)) | 0 (Herbicidal rate of 5% or less (almost no effect)) | 0 (Herbicidal rate of 5% or less (almost no effect)) | 3 (Herbicidal rate of 40% or more and less than 70%) | 2 (Herbicidal rate of 20% or more and less than 40%) | 3 (Herbicidal rate of 40% or more and less than 70%) | 2 (Herbicidal rate of 20% or more and less than 40%) | herbicidal effect on K: Italian ryegrass (criteria 0-5) (Italian ryegrass [1]): 4 (Herbicidal rate of 70% or more and less than 90%); herbicidal effect on I: wild oat (criteria 0-5) (wild oat [3]): 0 (Herbicidal rate of 5% or less (almost no effect)); herbicidal effect on L: windgrass (criteria 0-5) (windgrass [6]): 0 (Herbicidal rate of 5% or less (almost no effect)); herbicidal effect on M: velvetleaf (criteria 0-5) (velvetleaf [7]): 2 (Herbicidal rate of 20% or more and less than 40%); herbicidal effect on O: lambsquarters (criteria 0-5) (lambsquarters [12]): 3 (Herbicidal rate of 40% or more and less than 70%); herbicidal effect on F: southern crabgrass (criteria 0-5) (southern crabgrass [13]): 0 (Herbicidal rate of 5% or less (almost no effect)); herbicidal effect on G: green foxtail (criteria 0-5) (green foxtail [16]): 0 (Herbicidal rate of 5% or less (almost no effect)); herbicidal effect on J: blackgrass (criteria 0-5) (blackgrass [19]): 0 (Herbicidal rate of 5% or less (almost no effect)); herbicidal effect on H: barnyard grass (criteria 0-5) (barnyard grass [20]): 0 (Herbicidal rate of 5% or less (almost no effect)); herbicidal effect on R: persian speedwell (criteria 0-5) (persian speedwell [21]): 5 (Herbicidal rate of 90% or more (almost completely withered)); herbicidal effect on N: redroot pigweed (criteria 0-5) (redroot pigweed [22]): 5 (Herbicidal rate of 90% or more (almost completely withered)); herbicidal effect on P: chickweed (criteria 0-5) (chickweed [23]): 4 (Herbicidal rate of 70% or more and less than 90%) |
